Experiment [1] has as its system NCI-H226 cells. Description: Proliferation and cell viability, CellTiter-Glo 2.0 (CTG) assay. In kind it is cell-based. The conditions noted are these: for EC50: NCI-H226, H226-responder cell line (Table 5); for IC50: H226-responder cell line, 144 hrs. On the procedure:
Cell proliferation of a TEAD dependent NF2-null mesothelioma cell line, NCI-H226, and a TEAD-non-dependent mesothelioma cell line, NCI-H28 was assayed using two different protocols: • a) CellTiter-Glo 2.0 (Promega #G9243). The effect of the TEAD inhibitors disclosed herein on cell proliferation was determined in TEAD1-genetically dependent cell line NCI-H226 (responder cell line) and TEAD-independent cell lines (NCI-H23, HEK293T), as non-responder, negative control. Cells were seeded in 96-well plates (Thermo Scientific #167008) in growth media (RPMI-1640, Gibco #61870-010) for NCI-H226 and NCI-H23 or DMEM (Gibco #31966-021, HEK293T) with 10% Heat Inactivated Fetal Bovine Serum (Gibco 10500-064) at 800 (NCI-H226 and HEK-293T) or 2000 (NCI-H23) cells per well at 37° C., 5% CO2, humidified incubator; 24 hours later, fresh growth media containing test compound or DMSO vehicle was added and incubated with the cells for 144 hrs. TEAD inhibitor stocks were made at a 1000× fold excess in DMSO, and a dose response test compound dose range of 10,000 to 0.1 nM was used. Each treatment was carried out in triplicate. After 144 hrs of treatment, relative cell viability numbers were determined using the CellTiter-Glo 2.0 assay following the manufacturer's instructions. Test plates and CellTiter-Glo 2.0 reagent were allowed to equilibrate to room temperature. CellTiter-Glo 2.0 reagent was added at 1:1 reagent to media ratio to the 96-well cell plates, plates were placed on a plate shaker for 2 minutes and then incubated at room temperature for a further 10 minutes to allow complete cell lysis to occur. The mix was then transferred to white, 96-well luminometer assay plates (Greiner Bio One #655075). Luminescence was quantified using a CLARIOStar Plus multi-mode plate reader (BMG Labtech) in luminescence detection mode with the recommended settings (ultra-Glo pre-set: emission 545-50 nm with autofocus and enhanced dynamic range on). Relative cell density was expressed as a function of inhibitor concentration, with respect to DMSO-only control wells. Data where plotted using GraphPad Prism and IC50 values for the biological effect were calculated using the EC50 non-linear fit function using a sigmoidal, 4-parameter logistic, least squares fit with no constraints. • b) Cell Titer One (Promega, #G3582). The effect of the TEAD inhibitors disclosed herein on cell proliferation was also determined using the Promega Substrate Cell Titer Aqueous One Solution Reagent. The TEAD inhibitors were evaluated for the effects on cell proliferation responder (H226) and non-responder negative control cancer cell lines (CAMA1, H28), as well as non-transformed normal human cells (HUVEC, NHDF). Dissociated cells were resuspend in media (depending on cell line, either in DMEM, RPMI, or EMEM all with 10% FBS, with gentamicin as an antibiotic). Cells were seeded at 100 μL/well at 750 cells per well in 96-well plates and allowed to settle and attach. After an incubation of 24 hrs (37° C., 5% CO2, humidified incubator), 100 μL of test compound-containing media was added. A dilution series of 2000× concentrated stock of test compounds was prepared in DMSO, for final concentrations from 0.1 to 10,000 nM. After addition of test compound-containing media, cells were incubated for 6 days at 37° C., 5% CO2, humidified incubators). To measure cell density, 20 μL of Promega Substrate Cell Titer 96 Aqueous One Solution Reagent (Promega, #G3582) to each well was added according to the manufacturer's instructions. Plates were incubated at 37° C. for usually 3-8 hrs, to reach in the control cells (without compound) an OD of 1.5 at 490 nm. The OD was measured using Vmax [Molecular Devices] spectrophotometer plate reader. Media only-wells were used as background controls and cell densities normalized to DMSO vehicle control. ECs were taken as the concentration achieving 50% of maximal growth inhibition.

Experiment [2] relates to LOU-NH91 cells. The experiment in a line: LOU-NH91 proliferation and cell viability assay (CTG). Format: cell-based. The following applies: LOU-NH91 cell line, 216 hours. On the procedure:
LOU-NH91 cells were trypsinised, counted and plated at the specified cell density in 200 μl of growth media in 96 well flat bottom tissue culture treated plates. The plated cells were incubated overnight at 37° C., 5% CO2 before being treated with compounds in triplicate for each assay point. 50 μl of the serially diluted compound was added to each well giving a final DMSO concentration of 0.5% per well and a total volume of 250 μl per well. The treated cells were incubated for 216 hours (9 days) at 37° C., 5% CO2. Following compound treatment, the remaining viable cells were detected using the Promega CellTiter-Glo 2.0 assay as follows: 150 μl of media was removed from each of the wells to be assayed and 100 μl of room temperature CellTiter-Glo 2.0 reagent was added. The plate was placed on an orbital shaker at 500 rpm at room temperature for 2 minutes, and then incubated without shaking for a further 10 minutes at room temperature. 150 μl of cell lysate was removed from each well and dispensed into a single well of a white opaque 96 well plate. Luminescence at 545 nm was read using a BMG CLARIOstar plate reader. The luminescent signal was directly proportional to number of viable cells, the percent of viable cells relative to the DMSO control was then calculated for each assay point. Percent viability relative to DMSO control was plotted against compound concentration and a curve fitted with non-linear regression in GraphPad Prism software. EC50 and IC50 values were calculated using GraphPad Prism software as follows: For EC50 values a non-constrained four-parameter logistic curve fit was used (Sigmoidal, 4PL, X is concentration). For Absolute IC50 values the baseline was constrained to Y=0 (Absolute IC50, X is concentration). Area Under the Curve (AUC): Prism computes area-under-the-curve by the trapezoidal method. The analysis sees a fitted curve as simply a series of connected XY points. Prism simply computes the area under the “curve” defined by connecting the points by straight lines. The units of the AUC are the units of the Y axis times units of the X axis.

Where only a bound is given, the exact number is not on record here.

Consider `C=CC(=O)Nc1ccc(C)c(Oc2ccc(Cl)cc2)c1` [Compound 1-3, reference compound], for which the EC50 in experiment [1] (Homo sapiens) and in experiment [2] was less than 200 nM in each case.

For the compound `FC(F)(F)c1ccc(CN2CCC(C3CC(Br)=NO3)CC2)cc1` (stereo not drawn) [Compound 1-2, reference compound], the EC50 in experiment [1] (Homo sapiens) and in experiment [2] was less than 200 nM throughout.

`C[C@H](CO)NC(=O)c1cnc2c(C3=CCC4(CC3)CC(F)(F)C4)cccc2c1` [Compound 165, (R)-8-(2,2-difluorospiro[3.5]non-6-en-7-yl)-N-(1-hydroxypropan-2-yl)quinoline-3-carboxamide] showed an EC50 in experiment [1] (Homo sapiens) of less than 200 nM.

For `COc1cc(C2=CCC(C(F)(F)F)CC2)c2ncc(C(=O)N[C@H](C)CO)cc2c1` (stereo partly drawn) [Compound 110, N—((R)-1-hydroxypropan-2-yl)-6-methoxy-8-(4-(trifluoromethyl)cyclohex-1-en-1-yl)quinoline-3-carboxamide], in experiment [1] (Homo sapiens), the EC50 is less than 200 nM.

In experiment [1] (Homo sapiens, NCI-H226, 144 h), `O=C(NCc1ncco1)c1cnc2c(C3=CCC(C(F)(F)F)CC3)cccc2c1` (stereo not drawn) [Compound 11, N-(oxazol-2-ylmethyl)-8-(4-(trifluoromethyl)cyclohex-1-en-1-yl)quinoline-3-carboxamide] showed a concentration for half-maximal inhibition (IC50) of less than 200 nM. Further, the EC50 in experiment [1] (Homo sapiens) was less than 200 nM.

As for `C[C@@H](NC(=O)c1cnc2c(C3=CCC4(CC3)CC4)cccc2c1)c1ncco1` [Compound 166, (R)—N-(1-(oxazol-2-yl)ethyl)-8-(spiro[2.5]oct-5-en-6-yl)quinoline-3-carboxamide], in experiment [1] (Homo sapiens), the EC50 is less than 200 nM.

In experiment [1] (Homo sapiens, NCI-H226, 144 h), `C[C@H](NC(=O)c1cnc2c(C3=CCC(C(F)(F)F)CC3)cccc2c1)c1ccccn1` (stereo partly drawn) [Compound 2, N—((S)-1-(pyridin-2-yl)ethyl)-8-(4-(trifluoromethyl)cyclohex-1-en-1-yl)quinoline-3-carboxamide] displayed an IC50 of less than 200 nM.

As for `C[C@H](NC(=O)c1cnc2c(C3=CC[C@@H](C(F)(F)F)CC3)cccc2c1)c1ncco1` (single isomer, unassigned) [Compound 20, N-(1-(oxazol-2-yl)ethyl)-8-(4-(trifluoromethyl)cyclohex-1-en-1-yl)quinoline-3-carboxamide], the 50% inhibitory concentration (IC50) in experiment [1] is less than 200 nM. In experiment [2], this compound yielded a 50% effective concentration (EC50) of less than 200 nM.

For the compound `C[C@H](CO)NC(=O)c1cnc2c(C3=CCC(C(F)(F)F)CC3)cccc2c1` (stereo partly drawn) [Compound 7, N—((R)-1-hydroxypropan-2-yl)-8-(4-(trifluoromethyl)cyclohex-1-en-1-yl)quinoline-3-carboxamide], the half-inhibitory concentration (IC50) in experiment [1] (Homo sapiens, NCI-H226, 144 h) is less than 200 nM. For the same compound, the EC50 in experiment [1] (Homo sapiens) and in experiment [2] was less than 200 nM each time.

As for `O=C(NCc1ccn[nH]1)c1cnc2c(C3=CCC(C(F)(F)F)CC3)cccc2c1` (stereo not drawn) [Compound 47, N-((1H-pyrazol-5-yl)methyl)-8-(4-(trifluoromethyl)cyclohex-1-en-1-yl)quinoline-3-carboxamide], the 50% effective concentration (EC50) in experiment [1] (Homo sapiens) and in experiment [2] was less than 200 nM in each case.

Turning to `COc1cc(C2=CCC(C(F)(F)F)CC2)c2ncc(C(=O)N[C@H](C)c3ncco3)cc2c1` (stereo partly drawn) [Compound 109, 6-methoxy-N—((R)-1-(oxazol-2-yl)ethyl)-8-(4-(trifluoromethyl)cyclohex-1-en-1-yl)quinoline-3-carboxamide], the EC50 in experiment [1] (Homo sapiens) and in experiment [2] was less than 200 nM in each case.

With `COC[C@H](CO)NC(=O)c1cnc2c(C3=CCC(C(F)(F)F)CC3)cccc2c1` (stereo partly drawn) [Compound 62, N—((S)-1-hydroxy-3-methoxypropan-2-yl)-8-(4-(trifluoromethyl)cyclohex-1-en-1-yl)quinoline-3-carboxamide], the EC50 in experiment [1] (Homo sapiens) and in experiment [2] was less than 200 nM in each case.

As to `C[C@H](NC(=O)c1cnc2c(C3=CC[C@@H](C(F)(F)F)CC3)cccc2c1)c1ncco1` (single isomer, unassigned) [Compound 19, N-(1-(oxazol-2-yl)ethyl)-8-(4-(trifluoromethyl)cyclohex-1-en-1-yl)quinoline-3-carboxamide], in experiment [1] (Homo sapiens, NCI-H226, 144 h), the IC50 is less than 200 nM. Also, the EC50 in experiment [1] (Homo sapiens) and in experiment [2] was less than 200 nM in each case.

One may read the EC50 as the concentration at which the effect is half-maximal. Usually IC50 stands for the concentration that inhibits the measured activity by half. A low value points to higher potency.

Source of the values: US20250223306A1, “TEAD INHIBITORS AND METHODS OF USE” (Sporos BioDiscovery, Inc., priority 2022, published 2025).
